One assay concerns the target T1, mouse CD38 (Mus musculus, UniProt P56528).
T1 construct: purchased Bio-Techne GmbH 4947-AC
T1 sequence (P56528 1-304): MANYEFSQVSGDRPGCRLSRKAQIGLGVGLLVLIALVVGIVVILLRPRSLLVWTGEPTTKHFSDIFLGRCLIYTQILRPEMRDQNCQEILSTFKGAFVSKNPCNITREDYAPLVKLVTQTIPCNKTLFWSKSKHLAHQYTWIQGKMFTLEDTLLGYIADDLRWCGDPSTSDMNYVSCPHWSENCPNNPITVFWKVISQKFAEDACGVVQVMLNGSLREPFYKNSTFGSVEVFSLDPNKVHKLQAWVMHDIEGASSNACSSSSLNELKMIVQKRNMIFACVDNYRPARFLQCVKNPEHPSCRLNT
Kind of assay: NAD+ cyclase activity assay with mouse recombinant CD38 protein (ε-NAD fluorescence). The assay is classed as biochemical. The settings on record: 0.6 nM mouse CD38, substrate ε-NAD, 30 min preincubation, fluorescence 300/410 nm. In short, it runs like this:
(§1)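 Recombinant CD38 (0.6 nM mouse or 1.9 nM human) in 40 mM HEPES/NaOH pH 7.5, 250 mM sucrose, 0.01% Tween was preincubated with compound for 30 min at room temperature, then […] ε-NAD was added. Fluorescence (ex 300/em 410 nm) was read continuously. Slopes over the linear phase were normalised to enzyme and no-enzyme controls and fitted from 12-point, threefold dose-response curves.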

The next assay deals with T2, human CD38 (Homo sapiens, UniProt P28907).
T2 construct: purchased Bio-Techne GmbH AVI2404
T2 sequence (P28907 1-300): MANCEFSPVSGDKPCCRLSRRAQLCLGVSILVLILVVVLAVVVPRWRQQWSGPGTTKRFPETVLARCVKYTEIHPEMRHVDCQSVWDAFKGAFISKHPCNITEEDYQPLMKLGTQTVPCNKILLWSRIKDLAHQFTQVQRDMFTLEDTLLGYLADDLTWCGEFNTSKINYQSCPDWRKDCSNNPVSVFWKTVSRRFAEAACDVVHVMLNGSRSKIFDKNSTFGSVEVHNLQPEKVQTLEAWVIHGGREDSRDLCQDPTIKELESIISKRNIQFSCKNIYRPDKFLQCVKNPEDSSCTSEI
In words: NAD+ cyclase activity assay with human recombinant CD38 protein (ε-NAD fluorescence). The assay is classed as biochemical. The settings on record: 1.9 nM human CD38, substrate ε-NAD, 30 min preincubation, fluorescence 300/410 nm. In outline: as §1

A word on the IC50: it is the concentration needed to halve the response being measured. In the case of `O=C(N[C@H]1CC[C@H](OCC(F)(F)F)CC1)c1cc(Cl)c2c(c1)-c1cncn1CCO2` [Compound 157A, 8-Chloro-N-((1r,4r)-4-(2,2,2-trifluoroethoxy)cyclohexyl)-5,6-dihydrobenzo[f]imidazo[1,5-d][1,4]oxazepine-10-carboxamide], the 50% inhibitory concentration (IC50) at mouse CD38 was below 1 nM; at human CD38, below 30 nM.

In the case of `O=C(N[C@H]1CC[C@@H](OCC(F)(F)F)CC1)c1cc(Cl)c2c(c1)-c1cncn1CCO2` [Compound 158A, 8-Chloro-N-((1s,4s)-4-(2,2,2-trifluoroethoxy)cyclohexyl)-5,6-dihydrobenzo[f]imidazo[1,5-d][1,4]oxazepine-10-carboxamide], the IC50 at mouse CD38 was in the range of 1 to 10 nM; on human CD38, 30 to 100 nM.

`O=C(NC1CC2(CCC2)C1)c1cc(F)c2c(c1)-c1cncn1CCO2` [Compound 159A, 8-Fluoro-N-(spiro[3.3]heptan-2-yl)-5,6-dihydrobenzo[f]imidazo[1,5-d][1,4]oxazepine-10-carboxamide]: the IC50 at mouse CD38 was below 1 nM; at human CD38, below 30 nM.

As for `O=C(NC1CC2(COC2)C1)c1cc(F)c2c(c1)-c1cncn1CCO2` [Compound 160A, 8-Fluoro-N-(2-oxaspiro[3.3]heptan-6-yl)-5,6-dihydrobenzo[f]imidazo[1,5-d][1,4]oxazepine-10-carboxamide], the IC50 lay within 1 to 10 nM at mouse CD38 and 30 to 100 nM at human CD38.

With `O=C(NC1CCCC(C(F)(F)F)C1)c1cc(F)c2c(c1)-c1cncn1CCO2` (centres unmarked) [Compound 161A, 8-Fluoro-N-(3-(trifluoromethyl)cyclohexyl)-5,6-dihydrobenzo[f]imidazo[1,5-d][1,4]oxazepine-10-carboxamide], the IC50 on mouse CD38 is 1 to 10 nM; on human CD38, below 30 nM.

On to `CC1(NC(=O)c2cc(F)c3c(c2)-c2cncn2CCO3)CCCCC1` [Compound 162A, 8-Fluoro-N-(1-methylcyclohexyl)-5,6-dihydrobenzo[f]imidazo[1,5-d][1,4]oxazepine-10-carboxamide], for which the IC50 lay in the range of 10 to 100 nM at mouse CD38 and 30 to 100 nM on human CD38.

Regarding `CC1(NC(=O)c2cc(Cl)c3c(c2)-c2cncn2CCO3)CCCCC1` [Compound 163A, 8-Chloro-N-(1-methylcyclohexyl)-5,6-dihydrobenzo[f]imidazo[1,5-d][1,4]oxazepine-10-carboxamide], the IC50 on mouse CD38 is 1 to 10 nM; at human CD38, below 30 nM.

With `O=C(NC1CCC(CC(F)(F)F)CC1)c1cc(F)c2c(c1)-c1cncn1CCO2` (centres unmarked) [Compound 164A, 8-Fluoro-N-(4-(2,2,2-trifluoroethyl)cyclohexyl)-5,6-dihydrobenzo[f]imidazo[1,5-d][1,4]oxazepine-10-carboxamide], the values for the IC50 at mouse CD38 and at human CD38 were 1 to 10 nM and below 30 nM, respectively.

In the case of `O=C(NC1CCC(CC(F)(F)F)CC1)c1cc(Cl)c2c(c1)-c1cncn1CCO2` (centres unmarked) [Compound 165A, 8-Chloro-N-(4-(2,2,2-trifluoroethyl)cyclohexyl)-5,6-dihydrobenzo[f]imidazo[1,5-d][1,4]oxazepine-10-carboxamide], the IC50 is 1 to 10 nM at mouse CD38 and below 30 nM at human CD38.

As for `O=C(N[C@H]1CC[C@H](OC2CC(F)(F)C2)CC1)c1cc(F)c2c(c1)-c1cncn1CCO2` [Compound 166A, N-((1r,4r)-4-(3,3-Difluorocyclobutoxy)cyclohexyl)-8-fluoro-5,6-dihydrobenzo[f]imidazo[1,5-d][1,4]oxazepine-10-carboxamide], the IC50 at mouse CD38 was 1 to 10 nM; on human CD38, below 30 nM.

With `O=C(N[C@H]1CC[C@@H](OC2CC(F)(F)C2)CC1)c1cc(F)c2c(c1)-c1cncn1CCO2` [Compound 167A, N-((1s,4s)-4-(3,3-Difluorocyclobutoxy)cyclohexyl)-8-fluoro-5,6-dihydrobenzo[f]imidazo[1,5-d][1,4]oxazepine-10-carboxamide], the figures for the half-inhibitory concentration (IC50) at mouse CD38 and at human CD38 were 10 to 100 nM and 100 to 1000 nM, respectively.

In the case of `CC(C)(CO[C@H]1CC[C@@H](NC(=O)c2cc(F)c3c(c2)-c2cncn2CCO3)CC1)C(F)(F)F` [Compound 168A, 8-Fluoro-N-((1s,4s)-4-(3,3,3-trifluoro-2,2-dimethylpropoxy)cyclohexyl)-5,6-dihydrobenzo[f]imidazo[1,5-d][1,4]oxazepine-10-carboxamide], the figures for the IC50 on mouse CD38 and on human CD38 were above 100 nM and 100 to 1000 nM, respectively.

Turning to `CC1(NC(=O)c2cc(F)c3c(c2)-c2cncn2CCO3)CCS(=O)(=O)C1` (centres unmarked) [Compound 169A, 8-Fluoro-N-(3-methyl-1,1-dioxidotetrahydrothiophen-3-yl)-5,6-dihydrobenzo[f]imidazo[1,5-d][1,4]oxazepine-10-carboxamide], the IC50 fell in the range of 10 to 100 nM on mouse CD38 and 30 to 100 nM on human CD38.

Consider `CC(C)(CO[C@H]1CC[C@H](NC(=O)c2cc(Cl)c3c(c2)-c2cncn2CCO3)CC1)C(F)(F)F` [Compound 170A, 8-Chloro-N-((1r,4r)-4-(3,3,3-trifluoro-2,2-dimethylpropoxy)cyclohexyl)-5,6-dihydrobenzo[f]imidazo[1,5-d][1,4]oxazepine-10-carboxamide], for which the IC50 at mouse CD38 fell in the range of 1 to 10 nM; at human CD38, 30 to 100 nM.

For the compound `CC(C)(CO[C@H]1CC[C@@H](NC(=O)c2cc(Cl)c3c(c2)-c2cncn2CCO3)CC1)C(F)(F)F` [Compound 171A, 8-Chloro-N-((1s,4s)-4-(3,3,3-trifluoro-2,2-dimethylpropoxy)cyclohexyl)-5,6-dihydrobenzo[f]imidazo[1,5-d][1,4]oxazepine-10-carboxamide], the results for the IC50 on mouse CD38 and on human CD38 were above 100 nM and above 1000 nM, respectively.

On to `O=C(N[C@H]1CC[C@H](OC2CC(F)(F)C2)CC1)c1cc(Cl)c2c(c1)-c1cncn1CCO2` [Compound 172A, N-((1r,4r)-4-(3,3-difluorocyclobutoxy)cyclohexyl)-8-chloro-5,6-dihydrobenzo[f]imidazo[1,5-d][1,4]oxazepine-10-carboxamide], for which the IC50 on mouse CD38 is 1 to 10 nM; at human CD38, below 30 nM.

In the case of `O=C(N[C@H]1CC[C@@H](OC2CC(F)(F)C2)CC1)c1cc(Cl)c2c(c1)-c1cncn1CCO2` [Compound 173A, N-((1s,4s)-4-(3,3-difluorocyclobutoxy)cyclohexyl)-8-chloro-5,6-dihydrobenzo[f]imidazo[1,5-d][1,4]269xazepane-10-carboxamide], the IC50 at mouse CD38 is 10 to 100 nM; on human CD38 it was 100 to 1000 nM.

Turning to `C[C@@H]1CCC[C@H](C)[C@H]1NC(=O)c1cc(F)c2c(c1)-c1cncn1CCO2` [Compound 176A, N-(trans-2-trans-6-Dimethylcyclohexyl)-8-fluoro-5,6-dihydrobenzo[f]imidazo[1,5-d][1,4]oxazepine-10-carboxamide], the concentration for half-maximal inhibition (IC50) at mouse CD38 is 1 to 10 nM; at human CD38, below 30 nM.

Take `C[C@@H]1CCC[C@H](C)[C@@H]1NC(=O)c1cc(F)c2c(c1)-c1cncn1CCO2` [Compound 178A, N-(cis-2-cis-6-Dimethylcyclohexyl)-8-fluoro-5,6-dihydrobenzo[f]imidazo[1,5-d][1,4]oxazepine-10-carboxamide]: the IC50 on mouse CD38 was 1 to 10 nM; on human CD38, below 30 nM.

“N-((1r,4r)-4-((1-(Trifluoromethyl)cyclopropyl)methoxy)cyclohexyl)-5,6-dihydrobenzo[f]imidazo[1,5-d][1,4]oxazepine-10-carboxamide [Compound 142A]”: the IC50 was 1 to 10 nM on mouse CD38 and below 30 nM at human CD38.

Consider “N-((1r,4r)-4-((Tetrahydrofuran-2-yl)methoxy)cyclohexyl)-5,6-dihydrobenzo[f]imidazo[1,5-d][1,4]oxazepine-10-carboxamide [Compound 76A]”, for which the figures for the IC50 at mouse CD38 and at human CD38 were 1 to 10 nM and below 30 nM, respectively.

Turning to “N-((1s,4s)-4-((Tetrahydrofuran-2-yl)methoxy)cyclohexyl)-5,6-dihydrobenzo[f]imidazo[1,5-d][1,4]oxazepine-10-carboxamide [Compound 75A]”, the results for the IC50 on mouse CD38 and on human CD38 were above 100 nM and above 1000 nM, respectively.
